Experimental data taken from PubChem BioAssay (NCI).
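The compound was tested at five concentrations on cells cultured in 96-well plates, with a 48-hour exposure period. GI50: concentration for 50% inhibition of growth. TGI: total growth inhibition.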

Tests used:
Test in all cases: growth of human tumour cells (NCI), 48 h
[1] = tested on: NCI-H226 lung
[2] = tested on: HCC-2998 colon
[3] = tested on: SF-268 CNS
[4] = tested on: OVCAR-4 ovarian
[5] = tested on: RXF 393 renal
[6] = tested on: NCI-H460 lung
[7] = tested on: PC-3 prostate
[8] = tested on: KM12 colon
[9] = tested on: CCRF-CEM leukemia
[10] = tested on: SR leukemia

Structure (SMILES)	GI50 [1] [µM]	TGI [1] [µM]	GI50 [2] [µM]	TGI [2] [µM]	GI50 [3] [µM]	TGI [3] [µM]	GI50 [4] [µM]	TGI [4] [µM]	GI50 [5] [µM]	TGI [5] [µM]	TGI [6] [µM]	TGI [7] [µM]	TGI [8] [µM]	TGI [9] [µM]	TGI [10] [µM]	GI50 [6] [µM]	GI50 [7] [µM]	GI50 [8] [µM]	GI50 [9] [µM]
COc1ccc(-c2cc(-c3ccc(Nc4ccnc5cc(Cl)ccc45)cc3)nc(N3CCOCC3)n2)cc1	> 100	> 100	> 100	> 100	6.23	> 100	1.83	3.57	2.21	5.35									
CC(Cl)CN1c2ccccc2Sc2ccc(Cl)cc21 (centres undefined)		> 10		> 10		> 10		> 10		> 10	> 10	> 10	> 10	> 10					
N#Cc1c(-c2ccco2)cc(-c2ccc(N)cc2)[nH]c1=O		> 100		> 100		> 100		> 100		> 100	> 100		> 100	> 100	> 100				
Cn1cc(-c2csc(-c3cn(C)c4ccc(F)cc34)n2)c2cnccc21	2.05	4.26	1.86	3.55	1.93	3.79	1.7	3.16	1.61	3.05	3.71	3.31	3.36	4.13		1.97	1.71	1.79	1.96
NC(CCc1ncc(C(=O)O)s1)C(=O)O (centres undefined)		> 100		> 100						> 100	> 100		> 100	> 100					
O=C1CC2CCN(C(=O)c3ccccc3)CC2CCN1 (centres undefined)		> 100		> 100		> 100		> 100		> 100	> 100		> 100	> 100	> 100				
Cc1c2c(C(N)=O)nccc2c(C)c2c1c1ccccc1n2Cc1ccccc1		69.6		73.1		97.5		7.47		31.9	28.8	27.7	72.6	62.6					
CCOC(=O)C1=C(Nc2ccc(Br)cc2)OCC1=O		> 100		> 100		> 100		> 100		> 100	> 100		> 100	> 100	> 100				
COc1cc2c(cc1OC)C1Cc3cc(OC)c(OC)cc3N1CC2 (centres undefined)		47.9		> 100		> 100		57.7			> 100		> 100	> 100	> 100				
C=CCC1(C)CCCCC1(O)CS(=O)c1ccccc1 (centres undefined)		> 100		> 100		> 100		> 100		> 100	> 100		> 100	> 100	> 100				
Cc1ccc(C)c(N2C(=O)C(=O)C(c3nc4ccccc4o3)/C(=N/N)C2=O)c1 (centres undefined)		> 100		> 100		> 100		> 100		> 100	> 100		> 100	> 100	> 100				
COc1cc(-c2nnc3n2NC=C(C(=O)O)S3)cc(OC)c1OC		> 100		> 100		> 100		> 87.5		> 100	> 100		> 100	> 67.5	> 100				
O=C1C2[C@@H](C(=O)N1c1ccc(Br)cc1)C13C(=CC2([N+](=O)[O-])[C@@H]2C(=O)N(c4ccc(Br)cc4)C(=O)[C@@H]21)c1ccccc1N3c1ccccc1 (some centres undefined)		> 100		> 100		24.2				> 100			> 100	> 100	> 100				
Nc1ccc(C2=N/C(=C\c3cccc(N)c3)C(=O)O2)cc1				> 100		> 100		> 100		> 100			> 100	> 100	> 100				
Cc1c(Cl)cccc1NC(=O)c1cccc([N+](=O)[O-])c1O		56.3		78.6		> 100		> 70.1		19.7	43.3		> 68.5	34.7	74.8				
N#CC(C#N)=C1CCCOc2c1ccc1ccccc21			> 100	> 100	> 100	> 100	> 100	> 100	> 100	> 100	> 100	> 100	> 100	63.7		> 100	39.8	> 100	23
Cc1ccc(N2C(=O)N(c3ccc(C)cc3)C3(SC=NN3C)C2=O)cc1 (centres undefined)		> 100		> 100		> 100		> 100		> 100	> 100		> 100	> 100	> 100				
CCOc1ccc(N=Cc2c3ccccc3nc3ccccc23)cc1		> 100		> 100		> 100		> 100		> 100	> 100		84.7	24					
NC(=O)c1cn(Cc2ccccc2)c(=O)n1Cc1ccccc1		> 100		> 100		> 100		> 100		> 100	> 100		> 100	> 100					
COc1ccc2nc3cc(Cl)ccc3c(Sc3ccc(NC(C)=O)cc3)c2c1		> 30.9		5.93		> 40		> 52.6		> 27.9	> 47		> 35.2	> 100	16.1				
NCCN.O=C([O-])[O-].O=C([O-])[O-].[Co+3].[K+]					> 100	> 100	> 100	> 100			> 100		> 100	> 100		> 100		> 100	> 100
COC(=O)c1c[nH]cc1CCCCc1c[nH]cc1C(=O)OC		> 100		> 100		> 100		> 100		> 100	> 100		> 100	> 100	> 100				
CC12CCC(=O)N1c1cccnc1N2 (centres undefined)		> 100		> 100		> 100		> 100		> 100	> 100		> 100	> 100					
